In ChEMBL document CHEMBL3991601, “The target landscape of clinical kinase drugs” (Science, 2017):
Calls of active or inactive are those of the source.

Experiments:
[1] = target: Dual specificity protein kinase CLK3 (Homo sapiens, UniProt P49761); format: subcellular, K-562, COLO 205, SK-N-BE(2) and MV-4-11, Cell lysate; details: read-out: Kd apparent
[2] = target: T1, Peroxisomal acyl-coenzyme A oxidase 1 (Homo sapiens, UniProt Q15067)
T1 sequence (Q15067 whole entry): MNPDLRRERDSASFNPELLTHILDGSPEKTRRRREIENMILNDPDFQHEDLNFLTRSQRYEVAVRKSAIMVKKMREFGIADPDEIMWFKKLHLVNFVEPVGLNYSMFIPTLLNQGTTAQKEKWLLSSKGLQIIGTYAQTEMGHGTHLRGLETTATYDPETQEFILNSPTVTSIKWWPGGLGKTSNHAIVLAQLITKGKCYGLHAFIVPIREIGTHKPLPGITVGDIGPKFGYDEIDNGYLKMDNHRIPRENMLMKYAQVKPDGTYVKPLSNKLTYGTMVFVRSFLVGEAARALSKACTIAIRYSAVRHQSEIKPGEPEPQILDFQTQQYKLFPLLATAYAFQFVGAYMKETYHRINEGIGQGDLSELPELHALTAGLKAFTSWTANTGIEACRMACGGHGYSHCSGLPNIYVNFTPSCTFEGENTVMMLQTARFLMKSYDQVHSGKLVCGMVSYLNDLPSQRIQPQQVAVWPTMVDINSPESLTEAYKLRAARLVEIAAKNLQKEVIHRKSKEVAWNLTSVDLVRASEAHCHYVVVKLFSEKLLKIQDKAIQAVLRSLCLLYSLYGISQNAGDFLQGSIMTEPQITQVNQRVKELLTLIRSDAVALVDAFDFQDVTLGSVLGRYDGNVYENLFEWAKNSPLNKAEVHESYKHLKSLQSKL

[3] = target: Uncharacterized aarF domain-containing protein kinase 5 (Homo sapiens, UniProt Q3MIX3)
[4] = target: T2, Calcium/calmodulin-dependent protein kinase type IV (Homo sapiens, UniProt Q16566)
T2 sequence (Q16566 whole entry): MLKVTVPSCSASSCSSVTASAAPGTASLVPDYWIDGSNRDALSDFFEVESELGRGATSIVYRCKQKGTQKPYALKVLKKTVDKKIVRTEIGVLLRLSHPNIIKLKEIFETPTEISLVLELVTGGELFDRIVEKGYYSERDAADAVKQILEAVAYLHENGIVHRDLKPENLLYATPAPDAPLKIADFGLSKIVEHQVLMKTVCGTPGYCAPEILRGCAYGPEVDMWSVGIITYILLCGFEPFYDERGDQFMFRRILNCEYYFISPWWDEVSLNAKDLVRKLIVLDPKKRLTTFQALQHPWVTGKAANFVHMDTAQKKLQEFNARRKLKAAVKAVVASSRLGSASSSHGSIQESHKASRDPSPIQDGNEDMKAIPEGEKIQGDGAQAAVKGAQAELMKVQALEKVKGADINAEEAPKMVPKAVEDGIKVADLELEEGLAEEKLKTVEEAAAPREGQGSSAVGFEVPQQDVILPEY

[5] = target: Dual specificity protein kinase CLK1 (Homo sapiens, UniProt P49759)
Dual specificity protein kinase CLK1, sequence (P49759 whole entry): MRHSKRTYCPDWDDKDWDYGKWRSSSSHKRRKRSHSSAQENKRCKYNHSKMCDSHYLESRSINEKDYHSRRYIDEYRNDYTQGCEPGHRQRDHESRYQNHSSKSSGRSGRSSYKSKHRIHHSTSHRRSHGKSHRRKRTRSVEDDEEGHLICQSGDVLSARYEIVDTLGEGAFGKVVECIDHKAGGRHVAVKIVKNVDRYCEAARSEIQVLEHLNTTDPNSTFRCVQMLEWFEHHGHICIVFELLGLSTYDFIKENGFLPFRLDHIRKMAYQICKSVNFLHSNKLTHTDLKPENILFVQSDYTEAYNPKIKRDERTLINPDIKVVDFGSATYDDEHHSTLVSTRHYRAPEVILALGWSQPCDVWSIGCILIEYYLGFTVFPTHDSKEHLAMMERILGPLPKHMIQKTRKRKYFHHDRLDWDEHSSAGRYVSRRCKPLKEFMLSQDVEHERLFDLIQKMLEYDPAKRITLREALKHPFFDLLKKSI

[6] = target: Dual specificity protein kinase CLK2 (Homo sapiens, UniProt P49760)
[7] = target: G protein-coupled receptor kinase 6 (Homo sapiens, UniProt P43250)
[8] = target: Tyrosine-protein kinase Lck (Homo sapiens, UniProt P06239)
[9] = target: T3, Dual specificity mitogen-activated protein kinase kinase 5 (Homo sapiens, UniProt Q13163)
T3 sequence (Q13163 whole entry): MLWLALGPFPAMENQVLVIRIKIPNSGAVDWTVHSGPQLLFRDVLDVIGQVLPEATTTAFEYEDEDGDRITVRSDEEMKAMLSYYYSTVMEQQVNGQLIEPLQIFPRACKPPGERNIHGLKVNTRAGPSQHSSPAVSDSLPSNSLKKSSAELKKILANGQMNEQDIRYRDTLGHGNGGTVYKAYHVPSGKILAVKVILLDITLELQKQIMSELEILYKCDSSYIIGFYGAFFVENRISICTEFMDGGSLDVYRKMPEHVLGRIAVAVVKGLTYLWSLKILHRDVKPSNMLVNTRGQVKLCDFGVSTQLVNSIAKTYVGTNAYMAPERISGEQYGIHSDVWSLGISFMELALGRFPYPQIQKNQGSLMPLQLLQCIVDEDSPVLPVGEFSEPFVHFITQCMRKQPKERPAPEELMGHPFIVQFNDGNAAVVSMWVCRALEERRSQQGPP

[10] = target: Mitogen-activated protein kinase 14 (Homo sapiens, UniProt Q16539)
Mitogen-activated protein kinase 14, sequence (Q16539 whole entry): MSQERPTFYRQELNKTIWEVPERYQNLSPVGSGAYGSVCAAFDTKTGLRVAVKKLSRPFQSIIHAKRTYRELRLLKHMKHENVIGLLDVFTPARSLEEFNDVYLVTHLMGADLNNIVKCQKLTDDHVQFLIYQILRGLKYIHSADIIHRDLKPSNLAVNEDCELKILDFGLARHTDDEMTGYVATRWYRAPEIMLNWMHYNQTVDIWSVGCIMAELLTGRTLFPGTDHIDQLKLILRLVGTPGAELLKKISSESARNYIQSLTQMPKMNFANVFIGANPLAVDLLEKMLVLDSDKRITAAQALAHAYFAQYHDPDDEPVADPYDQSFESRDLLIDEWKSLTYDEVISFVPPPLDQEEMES

[11] = target: MAP kinase-activated protein kinase 3 (Homo sapiens, UniProt Q16644)
Myosin-10 = Myosin-10 (Homo sapiens, UniProt P35580)
Myosin-10, sequence (P35580 whole entry): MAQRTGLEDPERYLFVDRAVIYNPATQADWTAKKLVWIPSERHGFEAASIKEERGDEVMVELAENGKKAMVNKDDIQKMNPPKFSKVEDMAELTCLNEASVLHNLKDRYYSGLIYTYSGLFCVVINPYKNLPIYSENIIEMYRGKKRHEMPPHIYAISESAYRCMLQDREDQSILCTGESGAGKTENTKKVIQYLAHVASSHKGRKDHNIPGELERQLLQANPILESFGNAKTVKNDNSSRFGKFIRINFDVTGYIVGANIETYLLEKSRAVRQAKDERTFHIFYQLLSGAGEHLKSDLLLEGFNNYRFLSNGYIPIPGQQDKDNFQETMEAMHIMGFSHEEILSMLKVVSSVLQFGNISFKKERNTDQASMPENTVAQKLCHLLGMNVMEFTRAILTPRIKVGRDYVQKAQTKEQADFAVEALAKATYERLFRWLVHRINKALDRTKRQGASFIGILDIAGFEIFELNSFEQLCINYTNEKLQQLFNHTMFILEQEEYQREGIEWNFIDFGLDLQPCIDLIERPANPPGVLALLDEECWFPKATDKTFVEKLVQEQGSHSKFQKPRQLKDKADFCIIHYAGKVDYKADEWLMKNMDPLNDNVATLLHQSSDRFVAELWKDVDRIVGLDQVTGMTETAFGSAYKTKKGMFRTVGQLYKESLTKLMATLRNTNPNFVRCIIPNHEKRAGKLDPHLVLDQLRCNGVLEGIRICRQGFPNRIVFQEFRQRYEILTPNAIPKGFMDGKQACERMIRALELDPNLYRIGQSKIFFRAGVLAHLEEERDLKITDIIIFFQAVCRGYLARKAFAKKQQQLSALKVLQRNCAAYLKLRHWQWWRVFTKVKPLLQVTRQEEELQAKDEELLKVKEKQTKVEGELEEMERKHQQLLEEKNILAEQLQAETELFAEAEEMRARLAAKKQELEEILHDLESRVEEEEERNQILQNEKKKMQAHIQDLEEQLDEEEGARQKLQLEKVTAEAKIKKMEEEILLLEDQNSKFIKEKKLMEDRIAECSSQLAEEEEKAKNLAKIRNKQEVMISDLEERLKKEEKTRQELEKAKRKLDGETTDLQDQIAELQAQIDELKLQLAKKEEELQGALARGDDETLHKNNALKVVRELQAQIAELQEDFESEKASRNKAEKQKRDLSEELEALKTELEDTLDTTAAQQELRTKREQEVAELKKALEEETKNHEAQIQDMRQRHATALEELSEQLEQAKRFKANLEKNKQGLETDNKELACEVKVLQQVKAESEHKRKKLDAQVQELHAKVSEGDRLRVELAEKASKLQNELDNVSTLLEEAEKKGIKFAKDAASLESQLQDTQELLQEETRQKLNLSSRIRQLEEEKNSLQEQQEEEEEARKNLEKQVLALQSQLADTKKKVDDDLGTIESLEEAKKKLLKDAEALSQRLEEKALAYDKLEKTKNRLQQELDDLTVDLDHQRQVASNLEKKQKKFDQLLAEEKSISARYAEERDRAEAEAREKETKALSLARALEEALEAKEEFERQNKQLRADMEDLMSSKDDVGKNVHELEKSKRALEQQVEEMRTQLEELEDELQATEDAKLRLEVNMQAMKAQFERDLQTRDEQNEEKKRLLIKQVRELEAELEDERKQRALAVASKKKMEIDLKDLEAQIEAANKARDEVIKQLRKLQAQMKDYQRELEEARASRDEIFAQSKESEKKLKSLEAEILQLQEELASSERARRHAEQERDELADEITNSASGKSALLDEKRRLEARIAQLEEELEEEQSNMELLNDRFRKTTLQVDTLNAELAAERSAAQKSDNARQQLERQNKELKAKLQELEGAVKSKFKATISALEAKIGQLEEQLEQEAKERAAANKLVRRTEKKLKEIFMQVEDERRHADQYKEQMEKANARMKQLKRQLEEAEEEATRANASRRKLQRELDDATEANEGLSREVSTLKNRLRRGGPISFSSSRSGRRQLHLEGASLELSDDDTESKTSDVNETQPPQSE

[12] = target: T4, Serine/threonine-protein kinase NLK (Homo sapiens, UniProt Q9UBE8)
T4 sequence (Q9UBE8 whole entry): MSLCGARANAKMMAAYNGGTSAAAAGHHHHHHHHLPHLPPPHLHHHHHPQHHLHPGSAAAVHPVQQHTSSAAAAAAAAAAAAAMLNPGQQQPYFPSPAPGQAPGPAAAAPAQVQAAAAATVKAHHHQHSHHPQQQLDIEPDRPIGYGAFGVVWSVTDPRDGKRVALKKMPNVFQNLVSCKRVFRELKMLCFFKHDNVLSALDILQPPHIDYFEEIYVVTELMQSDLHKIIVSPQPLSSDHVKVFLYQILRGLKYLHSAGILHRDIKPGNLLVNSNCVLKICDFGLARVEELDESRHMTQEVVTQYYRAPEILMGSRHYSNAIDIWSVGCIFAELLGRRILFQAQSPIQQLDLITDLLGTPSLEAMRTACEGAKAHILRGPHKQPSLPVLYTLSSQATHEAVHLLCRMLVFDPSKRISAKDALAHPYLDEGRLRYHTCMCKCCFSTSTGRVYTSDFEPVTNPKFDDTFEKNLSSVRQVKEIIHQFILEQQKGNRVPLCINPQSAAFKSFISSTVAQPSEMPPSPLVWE

[13] = target: Protein kinase C theta type (Homo sapiens, UniProt Q04759)
Protein kinase C theta type, sequence (Q04759 whole entry): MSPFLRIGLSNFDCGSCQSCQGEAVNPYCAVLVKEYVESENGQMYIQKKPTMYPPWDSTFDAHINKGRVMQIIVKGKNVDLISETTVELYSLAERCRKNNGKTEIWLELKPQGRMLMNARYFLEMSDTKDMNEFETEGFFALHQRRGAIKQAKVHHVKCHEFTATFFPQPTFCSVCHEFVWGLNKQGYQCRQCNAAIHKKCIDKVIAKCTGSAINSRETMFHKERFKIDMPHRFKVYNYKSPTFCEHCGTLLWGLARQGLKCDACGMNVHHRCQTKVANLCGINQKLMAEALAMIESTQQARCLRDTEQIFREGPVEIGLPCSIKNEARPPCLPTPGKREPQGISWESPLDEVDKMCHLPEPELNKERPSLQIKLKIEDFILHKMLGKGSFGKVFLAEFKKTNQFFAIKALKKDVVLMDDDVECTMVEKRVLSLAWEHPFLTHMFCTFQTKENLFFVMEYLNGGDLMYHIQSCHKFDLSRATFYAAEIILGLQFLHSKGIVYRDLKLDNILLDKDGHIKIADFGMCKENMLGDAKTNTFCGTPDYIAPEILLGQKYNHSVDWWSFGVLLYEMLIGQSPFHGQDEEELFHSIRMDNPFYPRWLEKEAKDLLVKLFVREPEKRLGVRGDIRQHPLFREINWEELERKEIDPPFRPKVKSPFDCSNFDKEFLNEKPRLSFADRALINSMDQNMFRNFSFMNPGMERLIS

Focal adhesion kinase 1 = Focal adhesion kinase 1 (Homo sapiens, UniProt Q05397)
Focal adhesion kinase 1, sequence (Q05397 whole entry): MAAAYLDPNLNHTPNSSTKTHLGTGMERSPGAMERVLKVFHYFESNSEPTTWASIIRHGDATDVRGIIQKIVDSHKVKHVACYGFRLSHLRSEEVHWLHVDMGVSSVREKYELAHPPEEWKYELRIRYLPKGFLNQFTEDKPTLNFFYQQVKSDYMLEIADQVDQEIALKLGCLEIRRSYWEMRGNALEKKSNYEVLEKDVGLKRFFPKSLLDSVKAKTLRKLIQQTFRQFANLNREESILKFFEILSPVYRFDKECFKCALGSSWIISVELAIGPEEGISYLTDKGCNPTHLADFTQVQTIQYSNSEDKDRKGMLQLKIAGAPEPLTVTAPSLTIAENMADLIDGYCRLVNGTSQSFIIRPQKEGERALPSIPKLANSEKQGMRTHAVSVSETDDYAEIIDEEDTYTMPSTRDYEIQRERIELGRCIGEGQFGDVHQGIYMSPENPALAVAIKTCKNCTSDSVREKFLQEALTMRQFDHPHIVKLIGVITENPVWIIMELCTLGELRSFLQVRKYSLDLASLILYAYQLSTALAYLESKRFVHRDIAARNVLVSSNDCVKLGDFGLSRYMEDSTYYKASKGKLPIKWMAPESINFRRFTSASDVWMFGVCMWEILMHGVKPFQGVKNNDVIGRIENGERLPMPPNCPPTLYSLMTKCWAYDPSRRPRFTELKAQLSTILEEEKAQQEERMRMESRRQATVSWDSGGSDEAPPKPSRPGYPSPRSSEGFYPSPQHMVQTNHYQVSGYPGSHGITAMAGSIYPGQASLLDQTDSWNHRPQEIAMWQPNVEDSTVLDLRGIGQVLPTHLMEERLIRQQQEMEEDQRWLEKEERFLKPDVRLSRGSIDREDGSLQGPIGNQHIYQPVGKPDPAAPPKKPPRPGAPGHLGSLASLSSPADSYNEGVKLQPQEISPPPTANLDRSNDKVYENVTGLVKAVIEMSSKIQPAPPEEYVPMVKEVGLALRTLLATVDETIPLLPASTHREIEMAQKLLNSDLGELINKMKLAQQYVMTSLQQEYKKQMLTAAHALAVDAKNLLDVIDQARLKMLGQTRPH

[14] = target: Dual specificity testis-specific protein kinase 1 (Homo sapiens, UniProt Q15569)
[15] = target: Dual specificity testis-specific protein kinase 2 (Homo sapiens, UniProt Q96S53)
Note: in the data inactive means no Kd found up to 30 µM.

Dual specificity protein kinase CLK3, sequence (P49761 whole entry): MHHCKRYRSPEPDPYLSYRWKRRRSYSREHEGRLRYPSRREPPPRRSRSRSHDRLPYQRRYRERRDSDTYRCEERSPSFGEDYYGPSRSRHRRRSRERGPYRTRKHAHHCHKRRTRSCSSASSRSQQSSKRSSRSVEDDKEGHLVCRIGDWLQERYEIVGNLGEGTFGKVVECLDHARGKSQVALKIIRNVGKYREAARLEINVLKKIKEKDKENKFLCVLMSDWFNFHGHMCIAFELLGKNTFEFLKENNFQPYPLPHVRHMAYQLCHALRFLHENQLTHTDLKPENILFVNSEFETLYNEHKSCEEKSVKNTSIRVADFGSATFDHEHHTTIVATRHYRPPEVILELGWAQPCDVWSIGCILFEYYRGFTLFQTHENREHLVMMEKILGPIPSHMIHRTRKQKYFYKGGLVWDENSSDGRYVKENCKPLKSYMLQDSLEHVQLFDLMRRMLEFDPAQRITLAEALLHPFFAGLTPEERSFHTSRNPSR

Kd [1]	Kd [2]	Kd [3]	Kd [4]	Kd [5]	Kd [6]	Kd [7]	Kd [8]	Kd [9]	Kd [10]	Kd [11]	Kd (Myosin-10)	Kd [12]	Kd [13]	Kd (Focal adhesion kinase 1)	Kd [14]	Kd [15]	Structure (SMILES)
> 30 µM (inactive)	> 30 µM (inactive)	> 30 µM (inactive)	> 30 µM (inactive)	> 30 µM (inactive)	> 30 µM (inactive)	> 30 µM (inactive)	> 30 µM (inactive)	> 30 µM (inactive)	> 30 µM (inactive)	> 30 µM (inactive)	> 30 µM (inactive)	> 30 µM (inactive)	> 30 µM (inactive)	> 30 µM (inactive)	> 30 µM (inactive)	> 30 µM (inactive)	CNC(=O)c1cccc(-c2ccc3c(N4CCOC[C@@H]4C)nc(N4CCOC[C@@H]4C)nc3n2)c1 [VISTUSERTIB]
> 30 µM (inactive)	> 30 µM (inactive)	> 30 µM (inactive)	> 30 µM (inactive)	> 30 µM (inactive)	> 30 µM (inactive)	> 30 µM (inactive)	> 30 µM (inactive)	3.35 µM	> 30 µM (inactive)	> 30 µM (inactive)	> 30 µM (inactive)	> 30 µM (inactive)	> 30 µM (inactive)	> 30 µM (inactive)	> 30 µM (inactive)	> 30 µM (inactive)	Cn1c(=O)c(F)c(Nc2ccc(I)cc2F)c2c(=O)n(C[C@@H](O)CO)cnc21 [TAK-733]
